Experimental data from ChEMBL document CHEMBL1151438, “In vitro resistance study of rupintrivir, a novel inhibitor of human rhinovirus 3C protease” (Antimicrob Agents Chemother, 2007).

Experiments:
rhinovirus A2 [1] = test: Ratio of EC50 for HRV2 infected in human H1-HeLa cells after 9 passages for 62 days to EC50 for wild type HRV2 infected in human H1-HeLa cells; format: functional
rhinovirus A2 [2] = test: Ratio of EC50 for HRV2 infected in human H1-HeLa cells after 8 passages for 52 days to EC50 for wild type HRV2 infected in human H1-HeLa cells; format: functional
rhinovirus A2 [3] = test: Ratio of EC50 for HRV2 with 3C protease N165T mutation infected in human H1-HeLa cells after 3 passages for 24 days to EC50 for wild type HRV2 infected in human H1-HeLa cells; format: functional
rhinovirus B14 [4] = test: Antiviral activity against HRV14 with 3C protease A121A/V, T129A, T131A, T143P, Y139Y/H mutation infected in human H1-HeLa cells assessed as virus-induced cytopathic effect after 11 passages for 65 days by XTT assay; format: functional, organism-based; settings: Rhinovirus B
rhinovirus B14 [5] = test: Ratio of EC50 for HRV14 infected in human H1-HeLa cells after 11 passages for 65 days to EC50 for wild type HRV14 infected in human H1-HeLa cells; format: functional
rhinovirus A39 [6] = test: Antiviral activity against HRV39 with 3C protease […], L136/F mutation infected in human H1-HeLa cells assessed as virus-induced cytopathic effect after 5 passages for 29 days by XTT assay; format: functional, organism-based; settings: Rhinovirus A, 696 h
rhinovirus B14 [7] = test: Antiviral activity against HRV14 with 3C protease T131A mutation infected in human H1-HeLa cells assessed as virus-induced cytopathic effect after 3 days by XTT assay; format: functional, organism-based; settings: Rhinovirus B, 72 h
Human rhinovirus sp. [8] = test: Ratio of EC50 for HRV Hanks infected in human H1-HeLa cells after 3 passage for 35 days to EC50 for wild type HRV Hanks infected in human H1-HeLa cells; format: functional
rhinovirus B14 [9] = test: Antiviral activity against HRV14 with 3C protease Y139H mutation infected in human H1-HeLa cells assessed as virus-induced cytopathic effect after 3 days by XTT assay; format: functional, organism-based; settings: Rhinovirus B, 72 h
rhinovirus B14 [10] = test: Ratio of EC50 for HRV14 infected in human H1-HeLa cells after 3 passages for 14 days to EC50 for wild type HRV14 infected in human H1-HeLa cells; format: functional
rhinovirus B14 [11] = test: Ratio of EC50 for HRV14 infected in human H1-HeLa cells after 5 passages for 22 days to EC50 for wild type HRV14 infected in human H1-HeLa cells; format: functional
rhinovirus A39 [12] = test: Antiviral activity against wild type HRV39 infected in human H1-HeLa cells assessed as virus-induced cytopathic effect after 3 days by XTT assay; format: functional, organism-based; settings: Rhinovirus A, 72 h
rhinovirus B14 [13] = test: Ratio of EC50 for HRV14 with 3C protease T129A, T131T/A, T143P mutation infected in human H1-HeLa cells after 4 passages for 17 days to EC50 for wild type HRV14 infected in human H1-HeLa cells; format: functional
rhinovirus A2 [14] = test: Ratio of EC50 for HRV2 infected in human H1-HeLa cells after 4 passages for 24 days to EC50 for wild type HRV2 infected in human H1-HeLa cells; format: functional
rhinovirus B14 [15] = test: Ratio of EC50 for HRV14 with 3C protease T129A, T131A, Y139H, T143P mutation infected in human H1-HeLa cells to EC50 for wild type HRV14 infected in human H1-HeLa cells; format: functional
rhinovirus A2 [16] = test: Ratio of EC50 for HRV2 infected in human H1-HeLa cells after 3 passages for 17 days to EC50 for wild type HRV2 infected in human H1-HeLa cells; format: functional
rhinovirus A39 [17] = test: Ratio of EC50 for HRV39 infected in human H1-HeLa cells after 5 passages for 29 days to EC50 for wild type HRV39 infected in human H1-HeLa cells; format: functional
rhinovirus A39 [18] = test: Ratio of EC50 for HRV39 infected in human H1-HeLa cells after 4 passages for 24 days to EC50 for wild type HRV39 infected in human H1-HeLa cells; format: functional
rhinovirus A2 [19] = test: Ratio of EC50 for HRV2 infected in human H1-HeLa cells after 5 passages for 30 days to EC50 for wild type HRV2 infected in human H1-HeLa cells; format: functional
rhinovirus B14 [20] = test: Antiviral activity against HRV14 with 3C protease T129A, T131A, Y139H, T143P mutation infected in human H1-HeLa cells assessed as virus-induced cytopathic effect after 3 days by XTT assay; format: functional, organism-based; settings: Rhinovirus B, 72 h
Human rhinovirus sp. [21] = test: Antiviral activity against wild type HRV Hanks infected in human H1-HeLa cells assessed as virus-induced cytopathic effect after 4 days by plaque reduction assay; format: functional, organism-based; settings: 96 h
rhinovirus A2 [22] = test: Ratio of EC50 for HRV2 infected in human H1-HeLa cells after 10 passages for 66 days to EC50 for wild type HRV2 infected in human H1-HeLa cells; format: functional
rhinovirus B14 [23] = test: Antiviral activity against 0.02 MOI HRV14 infected in human H1-HeLa cells assessed as cell killing after 5 passages for 22 days by XTT assay; format: functional
rhinovirus B14 [24] = test: Ratio of EC50 for HRV14 with 3C protease with T129A, T131A, T143P, Y139Y/H mutation infected in human H1-HeLa cells after 10 passages for 55 days to EC50 for wild type HRV14 infected in human H1-HeLa cells; format: functional
rhinovirus B14 [25] = test: Ratio of EC50 for HRV14 with 3C protease with A121A/V, T129A, T131A, T143P, Y139Y/H mutation infected in human H1-HeLa cells after 11 passages for 65 days to EC50 for wild type HRV14 infected in human H1-HeLa cells; format: functional
Human rhinovirus sp. [26] = test: Antiviral activity against HRV Hanks with 3C protease T130A mutation infected in human H1-HeLa cells assessed as virus-induced cytopathic effect after 6 passages for 40 days by plaque reduction assay; format: functional, organism-based
Human rhinovirus sp. [27] = test: Ratio of EC50 for HRV Hanks with 3C protease T130A mutation infected in human H1-HeLa cells after 6 passages for 40 days to EC50 for wild type HRV Hanks infected in human H1-HeLa cells; format: functional
rhinovirus A2 [28] = test: Ratio of EC50 for HRV2 with 3C protease N165T mutation infected in human H1-HeLa cells after 4 passages for 24 days to EC50 for wild type HRV2 infected in human H1-HeLa cells; format: functional
rhinovirus A2 [29] = test: Antiviral activity against HRV2 with 3C protease N165T mutation infected in human H1-HeLa cells assessed as virus-induced cytopathic effect after 4 passages for 24 days by XTT assay; format: functional, organism-based; settings: Rhinovirus A, 576 h
rhinovirus A2 [30] = test: Antiviral activity against HRV2 with 3C protease N165T mutation infected in human H1-HeLa cells assessed as virus-induced cytopathic effect after 5 passages for 30 days by XTT assay; format: functional, organism-based; settings: Rhinovirus A
rhinovirus B14 [31] = test: Ratio of EC50 for HRV14 with 3C protease T129T/A, T131T/A, T143P/S mutation infected in human H1-HeLa cells after 3 passages for 14 days to EC50 for wild type HRV14 infected in human H1-HeLa cells; format: functional
rhinovirus B14 [32] = test: Antiviral activity against HRV14 with 3C protease T129T/A, T131T/A, T143P/S mutation infected in human H1-HeLa cells assessed as virus-induced cytopathic effect after 3 passages for 14 days by XTT assay; format: functional, organism-based; settings: Rhinovirus B, 336 h

CCOC(=O)/C=C/[C@H](C[C@@H]1CCNC1=O)NC(=O)[C@@H](CC(=O)[C@@H](NC(=O)c1cc(C)on1)C(C)C)Cc1ccc(F)cc1 [RUPINTRIVIR]
Ratio EC50 (rhinovirus A2 [1]): 15
Ratio EC50 (rhinovirus A2 [2]): 15
Ratio EC50 (rhinovirus A2 [3]): 1
EC50 (rhinovirus B14 [4]): 335 nM
Ratio EC50 (rhinovirus B14 [5]): 90
EC50 (rhinovirus A39 [6]): 83 nM
EC50 (rhinovirus B14 [7]): 14 nM
Ratio EC50 (Human rhinovirus sp. [8]): 2
EC50 (rhinovirus B14 [9]): 14 nM
Ratio EC50 (rhinovirus B14 [10]): 5
Ratio EC50 (rhinovirus B14 [11]): 20
EC50 (rhinovirus A39 [12]): 24 nM
Ratio EC50 (rhinovirus B14 [13]): 11
Ratio EC50 (rhinovirus A2 [14]): 5
Ratio EC50 (rhinovirus B14 [15]): 7
Ratio EC50 (rhinovirus A2 [16]): 3
Ratio EC50 (rhinovirus A39 [17]): 6
Ratio EC50 (rhinovirus A39 [18]): 6
Ratio EC50 (rhinovirus A2 [19]): 5
EC50 (rhinovirus B14 [20]): 268 nM
EC50 (Human rhinovirus sp. [21]): 19 nM
Ratio EC50 (rhinovirus A2 [22]): 15
Activity (rhinovirus B14 [23]): 88.2%
Ratio EC50 (rhinovirus B14 [24]): 15
Ratio EC50 (rhinovirus B14 [25]): 16
EC50 (Human rhinovirus sp. [26]): 51 nM
Ratio EC50 (Human rhinovirus sp. [27]): 3
Ratio EC50 (rhinovirus A2 [28]): 2
EC50 (rhinovirus A2 [29]): 44 nM
EC50 (rhinovirus A2 [30]): 57 nM
Ratio EC50 (rhinovirus B14 [31]): 7
EC50 (rhinovirus B14 [32]): 152 nM
